The subject of assay [1] is HIV-1 pseudotyped Mo-MLV virus. Nature of the assay: Infection of CEM cells by HIV-1 pseudotyped Mo-MLV virus (p24). Particulars: p24 at 48 hours p.i., AZT 5 μM, TASP 5 μM.
Protocol: CEM cells (2×10^5) were infected with the HIV-1 pseudoryped Mo-MLV virus (Experimental procedure) at 95 ng of p24/ml, in the absence (histogram Control) or presence of different additions (as indicated). The infection was monitored by the production of p24, which was measured in the culture supernatant at 48 hours p.i. The mean±SD of duplicate samples is given. Treatment of cells with the different antibodies was as in FIG. 6 +L. For a control of infection, cells were pretreated with 5 μM AZT before infection.
Hela cells were cotransfected by electroporation with plasmids pNL4-3 defective in env gene (Borman et al., 1995) and pE4070A expressing amphotrope envelope glycoproteins of Mo-MLV (Battini et al., 1996). Electroporation (Schwartz et al., 1996) was performed at 200 V, 960 μF, using a 4 mm wide cuvettes in a BIO-Rad Gene Pulser. The pseudotyped virus was recovered from the culture supernatant after 48 hours of culturing.
A further assay has as its system VSV/HIV. The class given is cell-based.
For another assay, the system named is HIV-1 Lai. Nature of the assay: HIV entry into HeLa P4 / P4-C5 cells (β-galactosidase activity), HIV-1 Lai. The class given is cell-based.
The subject of the next assay is HIV-1 Bal. As to the kind of experiment: HIV entry into HeLa P4-C5 cells (β-galactosidase), HIV-1 Ba-L. Particulars: HIV-1 Ba-L; heparin; mAb a-V3 5 μg/ml. The class given is cell-based.
For assay [2], the system named is HIV-1 AZT resistant, Saquinavir resistant, Nevirapine resistant. Nature of the assay: Entry of HIV-1 isolates resistant to antiviral drugs into HeLa cells (β-galactosidase). The class given is cell-based. Conditions: heparin 5 mg/ml. How it is done: HIV entry and replication, results in the activation of the HIV LTR, leading to the expression of the lacZ gene. Therefore, at 24 and 48 hours post-infection, the β-galactosidase activity could be measured in cell extracts directly. Consequently, this latter technique could be used to monitor HIV entry into cells. The HIV dose used corresponded to the amount of virus containing 20-40 ng/ml of p24.
In these experiments, the background values of the β-galactosidase activity were assesed by the samples incubated with the a-CD4 mAb. Furthermore, the effect of heparin (5 mg/ml) was investigated.

The test system of a further assay is HIV-1 Ada-M. As to the kind of experiment: HIV-1 Ada-M entry into HeLa P4-C5 cells (β-galactosidase). Particulars: HeLa P4-C5, β-galactosidase at 48 hours. Type of assay: cell-based. How it is done:
HeLa cells (P4-C5) were treated (incubation at 37° C., 30 min) with AZT (5 μM), (α-CD4 mAb CBT4 (5 μg/ml) before infection with the different HIV isolates in order to obtain the background β-galactosidase activity compared to untreated cells (Control). During the same time, the different HIV isolates were treated (incubation at room temperature, 15 min) with 1, 5, and 10 μg/ml of heparin before addition to untreated cells. The b-galactosidase activity was assayed at 48 hours post-infection as a measure of HIV entry (3 +L7).

The subject of a further assay is HIV-1 JRCSF. As to the kind of experiment: HIV entry into HeLa P4-C5 cells (β-galactosidase), HIV-1 JRCSF. The class given is cell-based. Particulars: HIV-1 JRCSF; heparin 1, 5, 10 μg/ml.
The next assay concerns SIVmac. Nature of the assay: SIVmac entry into HeLa cells (β-galactosidase). Type of assay: cell-based, SIV. Conditions: β-galactosidase at 48 hours.
A further assay deals with HIV-2 ROD. Nature of the assay: HIV entry into HeLa P4-C5 cells (β-galactosidase), HIV-2 ROD. The class given is cell-based. Conditions: heparin 1, 5, 10 μg/ml.
The subject of assay [3] is V3 loop-BPs (nucleolin, PHAP II, PHAP I). Nature of the assay: BIAcore biosensor binding to immobilized V3 loop-BPs. Details: species or system human. Particulars: for equilibrium affinity constant Ka: binding to the V3 loop-BPs; for Ka (equilibrium affinity constant) / ka (association rate constant) / kd (dissociation rate constant): binding protein(s) V3 loop-BPs, BIAcore.

A further assay deals with CD4 (Homo sapiens, UniProt P01730). As to the kind of experiment: BIAcore biosensor binding to soluble CD4. Particulars: binding protein soluble recombinant CD4, BIAcore. (In SPR one partner is held on a chip, and binding of the other changes the refractive index at the surface.)
Assay [4] has as its system V3 loop-BPs. As to the kind of experiment: ELISA binding of proteins to coated V3 loop-BPs. Details: species or system human. Particulars: gp120 1 ng/ml, gp41 2 ng/ml, histone H3. How it is done: This is an ELISA-type experiment using the purified preparation of the V3 loop-BPs which was as described in FIG. 2 +L. The purified preparation of the V3 loop-BPs at different concentrations (12;5 to 200 ng/ml; abscissa) was coated to the plate before incubation with either gp120 (at 1 ng/ml; ), gp41 (at 2 ng/ml;), or histone H3 (1 μg/ml;). […] As a control mAb, we used mAb OKT4A specific for CD4. The abscissa gives the concentration of V3 loop-BPs in ng/ml. The ordinate gives the optical density (OD) values measured at 450 nm as an indicator of reactivity. An OD value less than 0.2 was considered as not significant. mAb OKT4A at 1 mg/ml gave an OD value of 0.20 when used in wells preincubated with either gp120, gp41, or histone H3. Rabbit antiserum against CXCR4 at dilutions as low as 1:200 generated an OD value of 0.15.
The resulting absorbance was measured at 450 nm.
(An ELISA detects its analyte on a solid surface through an enzyme-linked reagent.)

The target in assay [5] is V3 loop-BPs. Nature of the assay: Inhibition of 5[Kψ(CH2N)PR]-TASP binding to the V3 loop-BPs (biosensor). Details: species or system human. Conditions: read-out: IC50 for the inhibition of 5[Kψ(CH2N)PR]-TASP binding to the V3 loop-BPs, increasing concentrations of gp120 HIV-1 Lai.

“And” between values parts separate entries of the source, which are not always exact repeats. Equal values may be shown once.

Consider `Cc1cn([C@H]2C[C@H](N=[N+]=[N-])[C@@H](CO)O2)c(=O)[nH]c1=O` [AZT, reference compound], for which, in assay [1], the “effect on infection by HIV-1 pseudotyped Mo-MLV virus” value is listed as “inhibited”. Besides, the “effect on VSV-HIV pseudotyped virus entry and replication” value with VSV/HIV is reported as “inhibited”. For the same compound, the “inhibition of HIV infection monitored by the production of p24” value in the assay with HIV-1 Lai (AZT 5 μM) was “more than 99%”.

In the case of Heparin [reference compound], the “effect on viral entry (β-galactosidase activity at 48 hours post-infection)” value is recorded as “no significant effect” in the assay with HIV-1 Bal; “no significant effect” in the assay on HIV-1 JRCSF; “inhibits” in the assay on HIV-1 Lai (HIV-1 LAI, heparin 1, 5, 10 μg/ml, mAb a-V3 5 μg/ml); “inhibits” in the assay with HIV-2 ROD. For the same compound, the “effect on entry of drug-resistant HIV-1 isolates” value in assay [2] is given as “drastically inhibited”. In addition, the “effect on HIV-1 Ada-M entry” value in the assay with HIV-1 Ada-M is “inhibits”. Moreover, the “effect on SIVmac entry” value with SIVmac is recorded as “inhibits”.

Regarding “NCTRPNNNRKSIRIQRGPGRAFVTIGKIGNMRQAHCNIS [V3 loop-Lai, synthetic V3 loop peptide of T-cell tropic HIV-1 Lai]”, the “equilibrium affinity constant Ka” value in assay [3] turned out to be 5.1e+06 M⁻¹.

With “NCTRPNNNTRKSIHIGPGRAFYTGEIIGDIRQAHCNLS [V3 loop-Ba-L, synthetic V3 loop peptide of macrophage-tropic HIV-1 Ba-L]”, the “equilibrium affinity constant Ka” value in assay [3] came out at 1.5e+06 M⁻¹.

Regarding “gp120 HIV-1 Lai: recombinant external envelope glycoprotein of HIV-1 Lai”, in the assay with CD4, the “Ka (equilibrium affinity constant)” value came out at 1.08e+09 M⁻¹, the “ka (association rate constant)” value is listed as 5.88 × 10^5 M^−1S^−1 and the “kd (dissociation rate constant)” value is listed as 54.50 × 10^−3 S^−1. Also, the “binding to the purified V3 loop-BPs in ELISA” value in the assay on V3 loop-BPs [4] is “bind in a dose-dependent manner”. In assay [3], the “Ka (equilibrium affinity constant)” value was found to be 2.1e+08 M⁻¹, the “ka (association rate constant)” value is 4.40 × 10^5 M^−1S^−1, the “kd (dissociation rate constant)” value is 2.10 × 10^−3 S^−1 and the “equilibrium affinity constant Ka” value amounted to 2.1e+08 M⁻¹. Moreover, the IC50 at V3 loop-BPs [5] is approximately 3 nM.

“gp120 HIV-1 MN: recombinant gp120 of HIV-1 MN”: in the assay with CD4, the “Ka (equilibrium affinity constant)” value was 7.7e+08 M⁻¹, the “ka (association rate constant)” value is listed as 2.98 × 10^5 M^−1S^−1 and the “kd (dissociation rate constant)” value was 38.60 × 10^−3 S^−1. In addition, in assay [3], the “Ka (equilibrium affinity constant)” value is 4.3e+08 M⁻¹, the “ka (association rate constant)” value is on record as 1.90 × 10^5 M^−1S^−1, the “kd (dissociation rate constant)” value is reported as 0.44 × 10^−3 S^−1 and the “equilibrium affinity constant Ka” value turned out to be 4.3e+08 M⁻¹.

With “gp120 HIV-1 SF2 2/3: nonglycosylated form of gp120 of HIV-1 SF2 (Env 2-3)”, in [3], the “Ka (equilibrium affinity constant)” value came out at 1.6e+08 M⁻¹, the “ka (association rate constant)” value is on record as 3.80 × 10^5 M^−1S^−1, the “kd (dissociation rate constant)” value is listed as 2.40 × 10^−3 S^−1 and the “equilibrium affinity constant Ka” value was 1.6e+08 M⁻¹.

Regarding “gp120 HIV-1 SF2: recombinant gp120 of HIV-1 SF2 produced in CHO cells”, in the assay with CD4, the “Ka (equilibrium affinity constant)” value was found to be 2.1e+08 M⁻¹, the “ka (association rate constant)” value is on record as 11.50 × 10^5 M^−1S^−1 and the “kd (dissociation rate constant)” value is 5.60 × 10^−3 S^−1. In [3], the “Ka (equilibrium affinity constant)” value came out at 2.32e+09 M⁻¹; the “ka (association rate constant)” value is 0.65 × 10^5 M^−1S^−1; the “kd (dissociation rate constant)” value is 0.028 × 10^−3 S^−1 and 0.03 × 10^−3 S^−1; the “equilibrium affinity constant Ka” value worked out at 2.3e+09 M⁻¹.

The values above are taken from US20020076693A1, “Novel cell surface receptor for HIV retroviruses, therapeutic and diagnostic uses” (priority 1997, published 2002).
